Measured values as given in ChEMBL document CHEMBL1201862, “PubChem BioAssay data set” (2004).
Where “and” joins values, the source holds several entries; their conditions need not be identical. Equal values may be shown once. Calls of active or inactive are those of the source.

How the values were obtained:
[1] = biological target: Potassium channel subfamily K member 3 (Homo sapiens, UniProt O14649); test: TASK1 (KCNK3) potassium channel inhibitors, SAR follow-up, CHO cells, FluxOR thallium flux (AID 652212); format: functional
[2] = biological target: NAD-dependent protein deacylase sirtuin-5, mitochondrial (Homo sapiens, UniProt Q9NXA8); test: SIRT5 deacylase inhibitors, dose response, biochemical, fluorescence imaging, cherry-pick, set 6 (AID 720597)
[3] = Late-stage results from the probe development effort to identify antagonists of arginine vasopressin receptor 1a (AVPR1a): fluorescence-based cell-based dose response AVPR1a inhibition assay.; format: functional
Vasopressin V1b receptor = Vasopressin V1b receptor (Homo sapiens, UniProt P47901); test: Late-stage results from the probe development effort to identify antagonists of arginine vasopressin receptor 1a (AVPR1a): fluorescence-based cell-based dose response AVPR1b inhibition counterscreen assay.; format: functional
Vasopressin V2 receptor = Vasopressin V2 receptor (Homo sapiens, UniProt P30518); test: Late-stage results from the probe development effort to identify antagonists of arginine vasopressin receptor 1a (AVPR1a): fluorescence-based cell-based dose response AVPR2 inhibition counterscreen assay.; format: functional
[4] = Late-stage results from the probe development effort to identify antagonists of arginine vasopressin receptor 1a (AVPR1a): fluorescence-based cell-based dose response OXTR inhibition counterscreen assay.; format: functional
[5] = biological target: T1, Low molecular weight phosphotyrosine protein phosphatase (Homo sapiens, UniProt P24666); test: LMPTP phosphatase inhibitors, dose response, biochemical, OMFP substrate, fluorescence intensity, set 2 (AID 743307); format: functional
T1 sequence (P24666 whole entry): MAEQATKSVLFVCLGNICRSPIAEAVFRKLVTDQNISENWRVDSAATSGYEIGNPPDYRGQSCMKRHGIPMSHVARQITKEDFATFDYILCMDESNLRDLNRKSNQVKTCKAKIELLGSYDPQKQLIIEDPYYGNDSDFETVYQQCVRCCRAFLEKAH

[6] = biological target: T1, Low molecular weight phosphotyrosine protein phosphatase; test: LMPTP phosphatase inhibitors, colorimetric pNPP readout, dose response, orthogonal assay, biochemical, absorbance, pNPP substrate, LMPTP-A isoform, set 2 (AID 743308); format: functional
[7] = P. falciparum Dd2 growth inhibitors, dose response, SYBR Green, cherry-picked samples (AID 1159567); format: functional, cell-based
[8] = HepG2 cell cytotoxicity, dose response, cytotoxicity control, cherry-picked samples (AID 1159577); format: functional, cell-based
[9] = P. falciparum 3D7-ScDHODH growth inhibitors, dose response, SYBR Green, dry powder samples (AID 1159570); format: functional, cell-based;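 also: parasite growth measured after 72 hours of compound exposure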
[10] = HepG2 cell cytotoxicity, dose response, cytotoxicity control, plate reader, dry powder samples (AID 1159569); format: functional, cell-based;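 also: inhibitor potency with signal falling toward the positive control level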
[11] = P. falciparum Dd2 growth inhibitors, dose response, SYBR Green, dry powder samples (AID 1159566); format: functional, cell-based;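 also: potency for growth inhibition with lower SYBR green DNA signal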
[12] = P. falciparum ATP4 D1247Y mutant growth inhibitors, dose response, NITD609-resistant line, SYBR Green, dry powder (AID 1159571); format: functional, cell-based;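 also: parasites synchronized at ring stage by sorbitol before testing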
[13] = biological target: T2, Calpain-2 catalytic subunit (Sus scrofa, UniProt P43367); test: pig calpain II inhibitor potency, dose response, biochemical, fluorogenic peptide substrate (AID 1420); format: functional
T2 sequence (P43367 whole entry): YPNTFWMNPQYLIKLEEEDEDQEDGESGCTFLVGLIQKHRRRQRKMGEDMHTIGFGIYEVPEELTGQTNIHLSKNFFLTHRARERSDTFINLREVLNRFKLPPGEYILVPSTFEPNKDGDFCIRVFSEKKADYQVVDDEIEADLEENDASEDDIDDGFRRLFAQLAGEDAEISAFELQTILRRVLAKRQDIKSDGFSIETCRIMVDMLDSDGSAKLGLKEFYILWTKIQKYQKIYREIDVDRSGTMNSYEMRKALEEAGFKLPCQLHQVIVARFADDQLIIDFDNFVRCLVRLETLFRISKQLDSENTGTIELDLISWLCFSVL

Nonstructural protein 1 = Nonstructural protein 1 (Influenza A virus, UniProt Q194T2); format: functional, Influenza A virus (A/California/07/2009(H1N1))
[14] = biological target: T3, Heat shock factor protein 1 (Mus musculus, UniProt P38532); test: HSF1 potentiators in luciferase reporter cells, confirmation, cell-based, NIH3T3, luminescence, dose retest (AID 435004); format: functional;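 also: stress induced by proteasome inhibitor MG132 added 30 min after compound; luciferase reporter driven by HSF1 response element in NIH3T3 cells; actives raise luminescence as potentiators of the MG132 stress response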
T3 sequence (P38532 whole entry): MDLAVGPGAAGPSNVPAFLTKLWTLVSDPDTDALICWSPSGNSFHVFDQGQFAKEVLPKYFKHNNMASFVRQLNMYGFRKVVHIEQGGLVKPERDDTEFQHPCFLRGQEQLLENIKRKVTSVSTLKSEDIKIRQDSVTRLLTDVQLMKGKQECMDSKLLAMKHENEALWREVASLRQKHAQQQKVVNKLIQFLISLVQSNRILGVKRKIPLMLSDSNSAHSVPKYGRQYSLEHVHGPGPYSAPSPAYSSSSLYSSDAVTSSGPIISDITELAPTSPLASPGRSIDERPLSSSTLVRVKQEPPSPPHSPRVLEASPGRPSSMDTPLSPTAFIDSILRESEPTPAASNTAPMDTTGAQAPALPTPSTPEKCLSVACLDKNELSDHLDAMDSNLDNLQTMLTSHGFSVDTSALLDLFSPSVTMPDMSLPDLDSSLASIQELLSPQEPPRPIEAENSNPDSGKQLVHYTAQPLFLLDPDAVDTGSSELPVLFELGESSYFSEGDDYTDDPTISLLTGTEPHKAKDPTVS

INS1 = test: beta cell apoptosis inhibitors, cytokine rescue, dose response, luminescence, retest (AID 449756); format: functional, cell-based; settings: Rattus norvegicus;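 also: cell death triggered by IL-1 beta plus TNF-alpha plus IFN-gamma mixture; protective hits raise ATP signal compared with cytokine alone wells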
[15] = A375 melanoma cell viability loss, dose response, counter-screen for MITF inhibitor project, CellTiter-Glo luminescence, dry powder, set 4 (AID 624364); format: functional, cell-based; settings: A-375;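 also: A375 melanoma cells are MITF independent so this is a counter screen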
[16] = A375 melanoma cell cytotoxicity, dose response, counter-screen for MITF inhibitor project, CellTiter-Glo luminescence, dry powder, set 7 (AID 624490); format: functional, cell-based; settings: A-375
[17] = SK-MEL-5 parental line viability, dose response, MITF inhibitor project, cell-based, CellTiter-Glo, dry powder, set 6 (AID 624429); format: functional
[18] = MITF Orthogonal Assay: SK-MEL-5 CTG Assay Measured in Cell-Based System Using Plate Reader - 2084-02_Inhibitor_Dose_DryPowder_Activity_Set5.; format: functional
[19] = A375 melanoma cell cytotoxicity, dose response, counter-screen for MITF inhibitor project, CellTiter-Glo luminescence, dry powder, set 6 (AID 624488); format: functional, cell-based
[20] = A375 melanoma cell viability loss, dose response, counter-screen for MITF modulator project, CellTiter-Glo luminescence, dry powder, set 9 (AID 651591); format: functional, cell-based; settings: A-375
[21] = MITF Measured in Cell-Based System Using Plate Reader - 2084-01_Inhibitor_Dose_DryPowder_Activity_Set6.; format: functional
[22] = A375 melanoma cell cytotoxicity, dose response, counter-screen for MITF inhibitor project, CellTiter-Glo luminescence, dry powder, set 2 (AID 624489); format: functional, cell-based; settings: A-375;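 also: actives are compounds lowering A375 viability meaning general cytotoxicity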
[23] = cytotoxicity in primary human melanocytes, dose response, cytotoxicity control, cell-based, plate reader, dry powder (AID 651920); format: functional
[24] = Dose-response inhibition of insulin secretion in a rat insulinoma line at 5 mM glucose (AID 1117331); format: functional, cell-based; settings: INS-1E
cells = format: functional, cell-based; settings: INS-1E

Chain of NAD-dependent protein deacylase sirtuin-5, mitochondrial (Q9NXA8 whole entry): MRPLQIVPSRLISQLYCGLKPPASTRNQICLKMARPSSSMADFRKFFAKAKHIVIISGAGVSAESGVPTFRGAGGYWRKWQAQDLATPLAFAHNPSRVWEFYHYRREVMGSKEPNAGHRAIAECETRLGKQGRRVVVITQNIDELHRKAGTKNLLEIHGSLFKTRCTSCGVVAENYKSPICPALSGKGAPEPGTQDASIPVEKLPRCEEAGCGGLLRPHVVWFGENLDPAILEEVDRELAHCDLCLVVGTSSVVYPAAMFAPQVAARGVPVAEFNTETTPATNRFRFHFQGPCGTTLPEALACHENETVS
Chain of Nonstructural protein 1 (Q194T2 whole entry): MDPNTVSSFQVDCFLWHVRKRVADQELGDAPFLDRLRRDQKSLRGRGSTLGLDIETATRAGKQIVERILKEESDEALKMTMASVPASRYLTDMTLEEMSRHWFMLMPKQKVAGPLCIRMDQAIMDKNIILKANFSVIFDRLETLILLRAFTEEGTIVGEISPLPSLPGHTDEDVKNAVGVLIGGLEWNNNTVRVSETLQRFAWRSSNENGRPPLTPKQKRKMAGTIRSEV
Chain of Vasopressin V1b receptor (P47901 whole entry): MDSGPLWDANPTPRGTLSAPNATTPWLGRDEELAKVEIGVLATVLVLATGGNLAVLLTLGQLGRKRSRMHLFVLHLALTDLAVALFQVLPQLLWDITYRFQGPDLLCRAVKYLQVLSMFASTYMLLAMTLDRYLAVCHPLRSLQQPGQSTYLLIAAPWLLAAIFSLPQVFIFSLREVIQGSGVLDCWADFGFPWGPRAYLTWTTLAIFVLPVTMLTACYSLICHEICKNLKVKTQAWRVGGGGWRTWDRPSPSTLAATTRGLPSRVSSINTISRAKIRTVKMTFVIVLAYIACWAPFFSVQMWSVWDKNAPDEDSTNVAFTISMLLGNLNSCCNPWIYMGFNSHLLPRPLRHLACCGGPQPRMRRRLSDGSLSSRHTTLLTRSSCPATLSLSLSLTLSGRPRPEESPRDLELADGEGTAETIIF
Chain of Potassium channel subfamily K member 3 (O14649 whole entry): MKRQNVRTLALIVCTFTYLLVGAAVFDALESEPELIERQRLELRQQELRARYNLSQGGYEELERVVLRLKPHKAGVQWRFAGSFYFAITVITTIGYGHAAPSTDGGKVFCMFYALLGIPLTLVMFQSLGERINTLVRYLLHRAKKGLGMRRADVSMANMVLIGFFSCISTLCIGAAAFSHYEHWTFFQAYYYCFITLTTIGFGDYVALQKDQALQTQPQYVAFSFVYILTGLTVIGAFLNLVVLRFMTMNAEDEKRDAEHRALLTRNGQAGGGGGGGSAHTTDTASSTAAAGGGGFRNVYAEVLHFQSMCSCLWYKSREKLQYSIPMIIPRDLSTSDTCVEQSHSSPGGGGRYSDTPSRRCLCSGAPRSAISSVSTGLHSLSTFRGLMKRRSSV
Chain of Vasopressin V2 receptor (P30518 whole entry): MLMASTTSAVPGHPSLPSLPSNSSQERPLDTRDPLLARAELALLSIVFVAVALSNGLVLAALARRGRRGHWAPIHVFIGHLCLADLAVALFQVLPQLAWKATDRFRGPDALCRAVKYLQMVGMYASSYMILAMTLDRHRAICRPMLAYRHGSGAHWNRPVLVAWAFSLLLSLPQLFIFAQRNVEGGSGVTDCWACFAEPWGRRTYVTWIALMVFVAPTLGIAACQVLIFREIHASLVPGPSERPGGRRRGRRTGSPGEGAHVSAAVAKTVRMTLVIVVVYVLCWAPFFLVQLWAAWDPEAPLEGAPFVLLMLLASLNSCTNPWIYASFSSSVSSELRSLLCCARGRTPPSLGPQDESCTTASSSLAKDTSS

## CCOc1ccc(NC(=O)c2cccc(NC(=O)C3CCCC3)c2)cc1
[1]
  IC50: 0.07 µM (active)

## Cc1ccc(S(=O)(=O)N(C)C[C@H]2OCCCC[C@H](C)Oc3ccc(NS(=O)(=O)c4ccc(F)cc4)cc3C(=O)N([C@@H](C)CO)C[C@H]2C)cc1
[2]
  AC50: > 30 µM (inactive)

## COc1ccc(N(CC2CC2)C(=O)N2CCN(c3ccccc3C(F)(F)F)CC2)cc1
[3]
  IC50: 0.0588 µM (active)
Vasopressin V1b receptor
  IC50: 17.9 µM (inactive)
Vasopressin V2 receptor
  IC50: 8.41 µM (active)
[4]
  IC50: 0.12 µM (active)

## c1ccc(-c2nc(N3CCCC3)c3ccccc3n2)cc1
[5]
  IC50: 42.1 µM (inactive)
[6]
  IC50: > 80 µM (inactive)

## N#Cc1ccc(-c2ccc([C@H]3[C@@H]4CN(C(=O)C5CCCC5)C[C@H]3N4)cc2)cc1
[7]
  AC50: 7.4 µM (active)
[8]
  AC50: > 39 µM (inactive)

## Cc1ccc(S(=O)(=O)N(C)C[C@H]2OCc3ccccc3-c3c(n(C)c4ccccc34)C(=O)N([C@@H](C)CO)C[C@H]2C)cc1
[9]
  AC50: 3.19 µM (active)
[10]
  AC50: 9.17 µM (active)
[7]
  AC50: 2.23 µM (active)
[11]
  AC50: 2.01 µM (active)
[12]
  AC50: 2.63 µM (active)

## O=C1C=C(Nc2ccccc2)C(=O)c2ccccc21
[13]
  IC50: 6.16 µM (not active)
Nonstructural protein 1
  IC50: 81.7 µM (active)
[14]
  EC50: 1.26 µM (active)
INS1
  AC50: 3.97 µM (active)
[15]
  AC50: > 70 µM (inactive)
[16]
  AC50: > 70 µM (inactive)
[17]; SK-MEL-5
  AC50: 2.37 µM (active)
[17]; sk-mel-5
  AC50: 1.93 µM (active)
[18]; SK-MEL-5
  AC50: 1.53 µM (active)
[18]; sk-mel-5
  AC50: 1.18 µM (active)
[19]
  AC50: > 70 µM (inactive)
[19]; A-375
  AC50: 51.5 µM (active)
[20]
  AC50: > 70 µM (inactive)
[21]
  AC50: 7.24 µM (active) and 5.31 µM (active)
[22]
  AC50: > 70 µM (inactive)
[23]
  AC50: > 70 µM (inactive)

## CCN(CC)CCNC(C(=O)OCCC(C)C)c1ccccc1 (stereo not drawn) [CAMYLOFIN]
[24]
  IC50: 24.8 µM (inactive)
cells
  IC50: > 33.3 µM (inactive)
